Legend:
Assay type in all cases: cell-based, human
[1] = test system: SN12C; experiment: SRB anti-cancer assay, Renal Cancer; details: 48 h
[2] = test system: MDA-MB-435; experiment: SRB anti-cancer assay, Breast Cancer; details: MDA-MB-435 (Breast Cancer), 48 h
[3] = test system: SR; experiment: SRB anti-cancer assay, Leukemia; details: 48 h
[4] = test system: SK-OV-3; experiment: SRB anti-cancer assay, Ovarian Cancer; details: SK-OV-3 (Ovarian Cancer), 48 h
[5] = test system: 786-0; experiment: SRB anti-cancer assay, Renal Cancer; details: 786-0 (Renal Cancer), 48 h
[6] = test system: CAKI-1; experiment: SRB anti-cancer assay, Renal Cancer; details: CAKI-1 (Renal Cancer), 48 h
[7] = test system: SNB-75; experiment: SRB anti-cancer assay, CNS Cancer; details: SNB-75 (CNS Cancer), 48 h
[8] = test system: UACC-257; experiment: SRB anti-cancer assay, Melanoma; details: UACC-257 (Melanoma), 48 h
[9] = test system: KM12; experiment: SRB anti-cancer assay, Colon Cancer; details: 48 h
[10] = test system: CCRF-CEM; experiment: SRB anti-cancer assay, Leukemia; details: 48 h
[11] = test system: UO-31; experiment: SRB anti-cancer assay, Renal Cancer; details: UO-31 (Renal Cancer), 48 h
[12] = test system: M14; experiment: SRB anti-cancer assay, Melanoma; details: 48 h
[13] = test system: EKVX; details: EKVX (Non-Small Cell Lung Cancer), 48 h
[14] = test system: RPMI-8226; experiment: SRB anti-cancer assay, Leukemia; details: RPMI-8226 (Leukemia), 48 h
[15] = test system: SW-620; experiment: SRB anti-cancer assay, Colon Cancer; details: SW-620 (Colon Cancer), 48 h
[16] = test system: OVCAR-4; experiment: SRB anti-cancer assay, Ovarian Cancer; details: OVCAR-4 (Ovarian Cancer), 48 h
[17] = test system: NCI-H23; details: NCI-H23 (Non-Small Cell Lung Cancer), 48 h
[18] = test system: SF-295; experiment: SRB anti-cancer assay, CNS Cancer; details: SF-295 (CNS Cancer), 48 h
[19] = test system: SNB-19; experiment: SRB anti-cancer assay, CNS Cancer; details: SNB-19 (CNS Cancer), 48 h
[20] = test system: HOP-62; details: HOP-62 (Non-Small Cell Lung Cancer), 48 h
[21] = test system: DU-145; experiment: SRB anti-cancer assay, Prostate Cancer; details: DU-145 (Prostate Cancer), 48 h
[22] = test system: HCC-2998; experiment: SRB anti-cancer assay, Colon Cancer; details: HCC-2998 (Colon Cancer), 48 h
[23] = test system: OVCAR-8; experiment: SRB anti-cancer assay, Ovarian Cancer; details: OVCAR-8 (Ovarian Cancer), 48 h
[24] = test system: T-47D; experiment: SRB anti-cancer assay, Breast Cancer; details: T-47D (Breast Cancer), 48 h
[25] = test system: MDA-N; experiment: SRB anti-cancer assay, Breast Cancer; details: 48 h
[26] = test system: OVCAR-5; experiment: SRB anti-cancer assay, Ovarian Cancer; details: OVCAR-5 (Ovarian Cancer), 48 h
[27] = test system: ACHN; experiment: SRB anti-cancer assay, Renal Cancer; details: 48 h
[28] = test system: NCI/ADR-RES; experiment: SRB anti-cancer assay, Breast Cancer; details: 48 h
[29] = test system: UACC-62; experiment: SRB anti-cancer assay, Melanoma; details: UACC-62 (Melanoma), 48 h
[30] = test system: A549/ATCC; details: A549/ATCC (Non-Small Cell Lung Cancer), 48 h
[31] = read-out: LC50 (the source's name)

N=c1nc(N)c2ncn([C@@H]3O[C@H](COC(=O)c4ccccc4)[C@@H](OC(=O)c4ccccc4)[C@H]3OC(=O)c3ccccc3)c2c(N)n1 [4,8-Diamino-6H-6-imino-1(2′,3′,5′-tri-O-benzoyl-β-D-ribofuranosyl)imidazo[4,5-e][1,3]diazepine]
GI50 [1]: 6.44 µM | TGI [1]: 39.4 µM | CC50 [1, 31]: > 100 µM | GI50 [2]: 14.9 µM | TGI [2]: 29.8 µM | CC50 [2, 31]: 59.8 µM | GI50 [3]: 4.27 µM | LC50 (concentration killing 50% of cells) [3]: > 100 µM | TGI [3]: >100 µM | GI50 [4]: 16.3 µM | TGI [4]: 30.5 µM | CC50 [4, 31]: 57 µM | GI50 [5]: 15.5 µM | TGI [5]: 35.6 µM | CC50 [5, 31]: 81.5 µM | GI50 [6]: 12.1 µM | TGI [6]: 26.8 µM | CC50 [6, 31]: 59.4 µM | GI50 [7]: 12.3 µM | LC50 (concentration killing 50% of cells) [7]: 50.4 µM | TGI [7]: 24.9 µM | GI50 [8]: 4.51 µM | TGI [8]: 18.3 µM | CC50 [8, 31]: 73.5 µM | GI50 [9]: 5.5 µM | LC50 [9]: 53.6 µM | TGI [9]: 19.4 µM | GI50 [10]: 0.125 µM | TGI [10]: 1.84 µM | CC50 [10, 31]: 6.4 µM | GI50 [11]: 6.4 µM | TGI [11]: 20.6 µM | CC50 [11, 31]: 51.1 µM | GI50 [12]: 1.91 µM | TGI [12]: 3.54 µM | CC50 [12, 31]: 6.54 µM | GI50 [13]: 10.9 µM | TGI [13]: 29.6 µM | CC50 [13, 31]: 80.4 µM | GI50 [14]: 2.53 µM | TGI [14]: 7.42 µM | CC50 [14, 31]: > 100 µM | GI50 [15]: 5.14 µM | TGI [15]: 29.5 µM | CC50 [15, 31]: > 100 µM | GI50 [16]: 13.8 µM | TGI [16]: 28 µM | CC50 [16, 31]: 57 µM | GI50 [17]: 12.3 µM | TGI [17]: 27.7 µM | CC50 [17, 31]: 62.3 µM | GI50 [18]: 6.03 µM | TGI [18]: 19.6 µM | CC50 [18, 31]: 49.2 µM | GI50 [19]: 14.7 µM | TGI [19]: 31.6 µM | CC50 [19, 31]: 68.2 µM | GI50 [20]: 7.64 µM | LC50 (concentration for 50% net cell kill) [20]: 55.6 µM | TGI [20]: 22.7 µM | GI50 [21]: 8.79 µM | TGI [21]: 21.8 µM | CC50 [21, 31]: 49.1 µM | GI50 [22]: 3.18 µM | TGI [22]: 6.41 µM | CC50 [22, 31]: 19.2 µM | GI50 [23]: 4.34 µM | LC50 (50% lethal concentration) [23]: > 100 µM | TGI [23]: 22.5 µM | GI50 [24]: 5.14 µM | TGI [24]: 18.9 µM | CC50 [24, 31]: 48.8 µM | GI50 [25]: 5.88 µM | TGI [25]: 21.7 µM | CC50 [25, 31]: 58.6 µM | GI50 [26]: 15.7 µM | TGI [26]: 30.1 µM | CC50 [26, 31]: 57.7 µM | GI50 [27]: 10.9 µM | TGI [27]: 23.5 µM | CC50 [27, 31]: 50.7 µM | GI50 [28]: 13.9 µM | TGI [28]: 31.5 µM | CC50 [28, 31]: 71.4 µM | GI50 [29]: 15.6 µM | TGI [29]: 33.4 µM | CC50 [29, 31]: 71.5 µM | GI50 [30]: 6.44 µM | TGI [30]: 30 µM | CC50 [30, 31]: > 100 µM

From patent US6677310B1, “Ring-expanded nucleosides and nucleotides” (Nabi, priority 1999, dated 2004)
